Measured values taken from PubChem BioAssay (NCI).
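Test compounds were applied to cells in 96-well plates for 48 hours at 5 doses. TGI: total growth inhibition.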

Legend:
Assay in all cases: NCI-60 cell line screen, 48 h
[1] = tested on: CAKI-1 renal
[2] = tested on: 786-0 renal
[3] = tested on: SK-OV-3 ovarian
[4] = tested on: M19-MEL melanoma
[5] = tested on: EKVX NSCLC
[6] = tested on: HCT-15 colon
[7] = tested on: KM20L2 colon
[8] = tested on: TK-10 renal
[9] = tested on: NCI-H23 lung
[10] = tested on: SK-MEL-2 melanoma
[11] = tested on: KM12 colon
[12] = tested on: UO-31 renal
[13] = tested on: IGROV1 ovarian
[14] = tested on: SF-295 CNS
[15] = tested on: HOP-62 NSCLC
[16] = tested on: HL-60(TB) leukemia
[17] = tested on: DMS 114 small cell lung
[18] = tested on: SW-620 colon
[19] = tested on: UACC-62 melanoma
[20] = tested on: MOLT-4 leukemia
[21] = tested on: HCC-2998 colon
[22] = tested on: OVCAR-8 ovarian
[23] = tested on: COLO 205 colon
[24] = tested on: SNB-78 CNS
[25] = tested on: OVCAR-4 ovarian
[26] = tested on: U251 CNS
[27] = tested on: K-562 leukemia
[28] = tested on: RPMI-8226 leukemia
[29] = tested on: A549 NSCLC
[30] = tested on: M14 melanoma
[31] = tested on: DLD-1 colon
[32] = tested on: CCRF-CEM leukemia
[33] = tested on: SF-268 CNS
[34] = tested on: ACHN renal
[35] = tested on: RXF-631 renal
[36] = tested on: HCT-116 colon
[37] = tested on: NCI-H522 lung
[38] = tested on: HT29 colon
[39] = tested on: SNB-19 CNS
[40] = tested on: SN12C renal
[41] = tested on: LOX IMVI melanoma
[42] = tested on: UACC-257 melanoma
[43] = tested on: SF-539 CNS
[44] = tested on: OVCAR-5 ovarian
[45] = tested on: NCI-H460 lung
[46] = tested on: NCI-H226 lung
[47] = tested on: MALME-3M melanoma
[48] = tested on: OVCAR-3 ovarian
[49] = tested on: SK-MEL-5 melanoma
[50] = tested on: SR leukemia
[51] = tested on: A498 renal
[52] = tested on: LXFL 529 NSCLC
[53] = tested on: HOP-92 NSCLC
[54] = tested on: SNB-75 CNS
[55] = tested on: SK-MEL-28 melanoma
[56] = tested on: RXF 393 renal
[57] = tested on: XF 498 CNS
[58] = tested on: HOP-18 NSCLC
[59] = tested on: DMS 273 small cell lung

CC#COP(=O)(OCC)OCC
TGI [1]: > 100 µM
TGI [2]: > 100 µM
TGI [3]: > 100 µM
TGI [4]: > 100 µM
TGI [5]: > 100 µM
TGI [6]: > 100 µM
TGI [7]: > 100 µM
TGI [8]: > 100 µM
TGI [9]: > 100 µM
TGI [10]: > 100 µM
TGI [11]: > 100 µM
TGI [12]: > 100 µM
TGI [13]: > 100 µM
TGI [14]: > 100 µM
TGI [15]: > 100 µM
TGI [16]: 60.6 µM
TGI [17]: > 100 µM
TGI [18]: > 100 µM
TGI [19]: > 100 µM
TGI [20]: > 100 µM
TGI [21]: > 100 µM
TGI [22]: > 100 µM
TGI [23]: > 100 µM
TGI [24]: > 100 µM
TGI [25]: > 100 µM
TGI [26]: > 100 µM
TGI [27]: > 100 µM
TGI [28]: > 100 µM
TGI [29]: > 100 µM
TGI [30]: > 100 µM
TGI [31]: > 100 µM
TGI [32]: > 100 µM
TGI [33]: > 100 µM
TGI [34]: > 100 µM
TGI [35]: > 100 µM
TGI [36]: > 100 µM
TGI [37]: > 100 µM
TGI [38]: > 100 µM
TGI [39]: > 100 µM
TGI [40]: > 100 µM
TGI [41]: > 100 µM
TGI [42]: > 100 µM
TGI [43]: > 100 µM
TGI [44]: > 100 µM
TGI [45]: > 100 µM
TGI [46]: > 100 µM
TGI [47]: > 100 µM
TGI [48]: > 100 µM
TGI [49]: > 100 µM
TGI [50]: > 100 µM
TGI [51]: > 100 µM
TGI [52]: > 100 µM

C=CCONC(=O)c1ccc(Cl)cc1
TGI [1]: > 100 µM
TGI [53]: > 100 µM
TGI [2]: > 100 µM
TGI [3]: > 100 µM
TGI [4]: > 100 µM
TGI [5]: > 100 µM
TGI [6]: > 100 µM
TGI [7]: > 100 µM
TGI [54]: > 100 µM
TGI [8]: > 100 µM
TGI [9]: > 100 µM
TGI [10]: > 100 µM
TGI [11]: > 100 µM
TGI [55]: > 100 µM
TGI [12]: > 100 µM
TGI [13]: > 100 µM
TGI [14]: > 100 µM
TGI [15]: > 100 µM
TGI [16]: > 100 µM
TGI [17]: > 100 µM
TGI [18]: > 100 µM
TGI [19]: > 100 µM
TGI [20]: > 100 µM
TGI [21]: > 100 µM
TGI [22]: > 100 µM
TGI [23]: > 100 µM
TGI [56]: > 100 µM
TGI [24]: > 100 µM
TGI [25]: > 100 µM
TGI [26]: > 100 µM
TGI [27]: > 100 µM
TGI [28]: > 100 µM
TGI [29]: > 100 µM
TGI [30]: > 100 µM
TGI [31]: > 100 µM
TGI [32]: > 100 µM
TGI [33]: > 100 µM
TGI [34]: > 100 µM
TGI [35]: > 100 µM
TGI [36]: > 100 µM
TGI [37]: > 100 µM
TGI [38]: > 100 µM
TGI [39]: > 100 µM
TGI [40]: > 100 µM
TGI [57]: > 100 µM
TGI [41]: > 100 µM
TGI [42]: > 100 µM
TGI [43]: > 100 µM
TGI [44]: > 100 µM
TGI [45]: > 100 µM
TGI [47]: > 100 µM
TGI [58]: > 100 µM
TGI [49]: > 100 µM
TGI [50]: > 100 µM
TGI [51]: > 100 µM
TGI [52]: > 100 µM

C=C1C(=O)OC2CC3(C)C=CC(=O)C(=C)C3CC12 (configuration not stated)
TGI [1]: 2.77 µM
TGI [53]: 3.49 µM
TGI [2]: 3.36 µM
TGI [3]: 42.1 µM
TGI [4]: 3.51 µM
TGI [5]: 6.85 µM
TGI [6]: 4.09 µM
TGI [7]: 6.88 µM
TGI [54]: 14.7 µM
TGI [8]: 4.79 µM
TGI [59]: 2.64 µM
TGI [9]: 3.48 µM
TGI [10]: 3.13 µM
TGI [11]: 5.57 µM
TGI [55]: 3.48 µM
TGI [12]: 3.13 µM
TGI [13]: 5.04 µM
TGI [14]: 26.8 µM
TGI [15]: 19.2 µM
TGI [17]: 9.57 µM
TGI [18]: 2.36 µM
TGI [19]: 2.92 µM
TGI [20]: 3.52 µM
TGI [21]: 6.55 µM
TGI [22]: 4.92 µM
TGI [23]: 3.05 µM
TGI [56]: 4.46 µM
TGI [24]: 14 µM
TGI [25]: 6.55 µM
TGI [26]: 13.5 µM
TGI [27]: > 100 µM
TGI [28]: 3.22 µM
TGI [29]: 20.4 µM
TGI [30]: 2.86 µM
TGI [31]: 1.51 µM
TGI [33]: 6.91 µM
TGI [34]: 3.35 µM
TGI [36]: 2.54 µM
TGI [37]: 1.69 µM
TGI [38]: 3.45 µM
TGI [39]: 21.3 µM
TGI [40]: 3.46 µM
TGI [57]: 3.35 µM
TGI [41]: 1.86 µM
TGI [42]: 3.1 µM
TGI [43]: 3.97 µM
TGI [44]: 8.05 µM
TGI [45]: 7.12 µM
TGI [46]: 25.8 µM
TGI [47]: 4.02 µM
TGI [48]: 7.19 µM
TGI [58]: 8.77 µM
TGI [49]: 3.48 µM
TGI [50]: 12.4 µM
TGI [51]: 19.5 µM
TGI [52]: 1.93 µM

O=C1C/C(=C/c2ccc(/C=C3/CC(=O)N(c4cccc(Br)c4)C3=O)cc2)C(=O)N1c1cccc(Br)c1
TGI [1]: > 100 µM
TGI [53]: > 100 µM
TGI [2]: > 100 µM
TGI [3]: > 100 µM
TGI [4]: > 100 µM
TGI [5]: > 100 µM
TGI [6]: > 100 µM
TGI [7]: > 100 µM
TGI [54]: 53.1 µM
TGI [8]: > 100 µM
TGI [59]: > 100 µM
TGI [9]: > 100 µM
TGI [10]: > 100 µM
TGI [11]: > 100 µM
TGI [55]: > 100 µM
TGI [12]: > 100 µM
TGI [13]: > 100 µM
TGI [14]: > 100 µM
TGI [15]: > 100 µM
TGI [16]: > 100 µM
TGI [17]: > 100 µM
TGI [18]: > 100 µM
TGI [19]: > 100 µM
TGI [20]: 98.6 µM
TGI [21]: > 100 µM
TGI [22]: > 100 µM
TGI [23]: > 100 µM
TGI [56]: 93.4 µM
TGI [24]: > 100 µM
TGI [25]: > 100 µM
TGI [26]: > 100 µM
TGI [27]: > 100 µM
TGI [28]: > 100 µM
TGI [29]: > 100 µM
TGI [30]: > 100 µM
TGI [31]: > 100 µM
TGI [32]: > 100 µM
TGI [33]: > 100 µM
TGI [34]: > 100 µM
TGI [36]: > 100 µM
TGI [37]: > 100 µM
TGI [38]: > 100 µM
TGI [39]: > 100 µM
TGI [40]: > 100 µM
TGI [57]: > 79 µM
TGI [41]: > 100 µM
TGI [42]: > 100 µM
TGI [43]: > 100 µM
TGI [44]: > 100 µM
TGI [45]: > 100 µM
TGI [46]: > 100 µM
TGI [47]: > 100 µM
TGI [48]: > 100 µM
TGI [58]: > 100 µM
TGI [49]: > 100 µM
TGI [50]: > 100 µM
TGI [51]: > 100 µM
TGI [52]: > 100 µM
